Data reported in US5054434A, “Suppression of ammonia odors from animal wastes” (W. R. Grace & Co.-Conn., priority 1989, dated 1991).
Structures can show the parent of a compound that is named as a salt.

What was measured:
[1] = cited from earlier work
[2] = target: jack bean urease (Canavalia ensiformis, UniProt P07374); assay: Ammonia accumulation from synthetic urine with urease on treated bedding; type: biochemical; details: for control of accumulation of ammonia: procedure of Example 1; for ammonia smell in capped bottle: 12 mg acid, 15 g synthetic urine with 200 units urease, 37.5° C., after 4 hr
Description: To test the effectiveness of the acid the following procedure has been used. A synthetic urine is made by combining 2.3 wt % urea and 1.1 wt % sodium chloride. To mimic the presence of bacteria, 200 units of jack bean urease is added to the synthetic urine. Jack bean urease is a readily available form of urease which is suitable for use in this context because useases from most natural sources appear to act similarly. See "Jack Bean Urease (EC 3.5.1.5).8. […] Chem. Soc. 1986, 108, 7124-7125.
This urine is then poured over a sample of bedding or other absorbent material to which the acid has been applied. The treated sample is covered so that any gases produced may accumulate. The presence of ammonia is tested for by using Draeger tubes.
Two 8 oz. polyethylene bottles were charged with 15 g of rice hulls and 15 g of sawdust, respectively. […] The bottles were capped, and incubated in a shaker bath at 37.5° C. […] By contrast, identical bottles not containing citric acid smelled strongly of ammonia.

[3] = test system: urease; details: literature statement (Mobley and Hausinger 1989); cited from earlier work
[4] = smell of the acid itself; cited from earlier work
[5] = test system: Bacillus pasteurii; assay: Ammonia accumulation from synthetic urine on rice hulls with live urease-producing bacteria; details: 24 mg acid, 6 g rice hulls, 24 g synthetic urine, 37.5° C., after one day
[6] = test system: rabbit; details: cited from earlier work

Sequence of jack bean urease (P07374 whole entry, looked up): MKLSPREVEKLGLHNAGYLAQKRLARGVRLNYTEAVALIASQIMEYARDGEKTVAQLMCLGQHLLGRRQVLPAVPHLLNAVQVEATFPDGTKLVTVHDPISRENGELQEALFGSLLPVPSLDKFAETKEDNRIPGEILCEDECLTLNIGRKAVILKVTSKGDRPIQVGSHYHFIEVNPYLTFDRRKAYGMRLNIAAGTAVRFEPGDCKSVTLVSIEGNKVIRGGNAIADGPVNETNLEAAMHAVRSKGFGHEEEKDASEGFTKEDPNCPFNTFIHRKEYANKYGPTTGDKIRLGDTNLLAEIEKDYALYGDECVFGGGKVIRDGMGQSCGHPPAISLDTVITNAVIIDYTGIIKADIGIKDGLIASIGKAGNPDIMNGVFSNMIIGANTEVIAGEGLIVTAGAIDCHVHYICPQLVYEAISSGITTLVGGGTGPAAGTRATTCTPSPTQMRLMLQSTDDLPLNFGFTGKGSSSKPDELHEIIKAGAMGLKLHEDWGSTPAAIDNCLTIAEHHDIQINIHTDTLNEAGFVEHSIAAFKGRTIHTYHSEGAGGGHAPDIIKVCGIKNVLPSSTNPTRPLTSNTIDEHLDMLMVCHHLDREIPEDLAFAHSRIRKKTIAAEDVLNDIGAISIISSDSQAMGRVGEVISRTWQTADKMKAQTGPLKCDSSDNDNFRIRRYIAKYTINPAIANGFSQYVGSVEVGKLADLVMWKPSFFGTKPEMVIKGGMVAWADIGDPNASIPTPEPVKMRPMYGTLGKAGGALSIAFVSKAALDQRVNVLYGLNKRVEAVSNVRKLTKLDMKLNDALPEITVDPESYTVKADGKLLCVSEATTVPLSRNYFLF

For `OB(O)O` [boric acid, reference compound], the “First pKa” value [1] is given as 9.1 and the “control of accumulation of ammonia” value ([2]; 36 mg) is given as “not control the accumulation of ammonia”.
For phosphoric acid, the inhibition of urease [3] is listed as “inhibitor of urease” and the “control of accumulation of ammonia” value ([2]; 6 mg) is listed as “sufficient to prevent the accumulation of noticeable amounts of ammonia”.
In the case of `O=C(O)CC(O)(CC(=O)O)C(=O)O` [sodium citrate, reference compound], the “control of accumulation of ammonia” value ([2]; 24 mg) is reported as “not to control the accumulation of ammonia”.
In the case of `O=C(O)CC(=O)O` [Malonic, malonic], the Smell [4] is given as “None”.
In the case of `O=C(O)CCC(=O)O` [Succinic, succinic], the Smell [4] is given as “None”.
In the case of `C/C=C/C=C/C(=O)O` [Sorbic, sorbic], the “First pKa” value [1] is given as 4.8 and the Smell [4] is given as “None”.
In the case of `O=C(O)CC(O)(CC(=O)O)C(=O)O` [Citric, citric acid], the “ammonia in bottle measured using a Draeger tube” value [5] is given as “less than 5 ppm”, the Smell [4] is given as “None” and the “ammonia smell in capped bottle” value ([2]; 15 g rice hulls) is given as “no ammonia smell could be detected”. The “ammonia smell in capped bottle” value ([2]; 15 g sawdust) was “no ammonia smell could be detected”.
With `O=C(O)/C=C/C(=O)O` [Fumaric, fumaric acid] the “control of accumulation of ammonia” value ([2]; 6 mg) was “sufficient to prevent the accumulation of noticeable amounts of ammonia”.
For `CC(=O)O` [acetic acid, reference compound], the Smell [4] is listed as “strong and unpleasant smell”.
In the case of `O=C(O)CC(O)C(=O)O` (stereo not drawn) [Malic, malic acid], the “Oral LD50” value [6] is listed as 5,000 mg/kg, the Smell [4] is listed as “None” and the “control of accumulation of ammonia” value ([2]; 12 mg) is listed as “sufficient to prevent the accumulation of noticeable amounts of ammonia”.
